Our source for the IC50 values is publication PMC2894972, “Protein-Protein Interaction Antagonists as Novel Inhibitors of Non-Canonical Polyubiquitylation” (PLoS ONE, 2010).

This assay has as its target T1, Ubc13-Uev1 heterodimer (Homo sapiens, UniProt P61088).
T1 construct: gene UBE2N; heterodimer of purified recombinant Ubc13 and Uev1; with Ubiquitin-conjugating enzyme E2 variant 1
Briefly: surface plasmon resonance competition: Ubc13 preincubated with compound, injected over immobilized Uev1. The note with it: inhibition of Ubc13-Uev1 interaction; Ubc13 400 nM; 10 mM HEPES, 0.15 M NaCl, pH 7.4; legend prints 1.1 µM. It counts as binding.

T1 sequence (P61088 whole entry): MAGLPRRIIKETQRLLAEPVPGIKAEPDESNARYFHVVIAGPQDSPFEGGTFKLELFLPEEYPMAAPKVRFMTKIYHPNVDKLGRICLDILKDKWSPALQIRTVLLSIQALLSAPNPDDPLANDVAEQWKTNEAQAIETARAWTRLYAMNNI
T1 sequence (Q13404 2-147 partner): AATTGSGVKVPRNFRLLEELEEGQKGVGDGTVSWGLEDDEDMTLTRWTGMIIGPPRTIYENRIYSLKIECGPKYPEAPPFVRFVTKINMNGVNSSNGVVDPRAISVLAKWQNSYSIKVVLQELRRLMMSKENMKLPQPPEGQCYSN

As for `NC(=O)CN(CCc1ccccn1)C(=O)CC1C(=O)N(CCc2ccc(F)cc2)CC(=O)N1CCc1ccc(F)cc1` (stereo not shown) [IIa, compound IIa], the IC50 (commonly the concentration at which inhibition is half-maximal) turned out to be 1100 nM.
